“Also recorded” adds a separate entry of the source.
Columns and labels:
Helicobacter pylori [1] = assay: TLC bacterial overlay assay: binding of 35S-labeled Helicobacter pylori to glycosphingolipids; conditions: for Helicobacter pylori binding activity (in words): TLC overlay; for binding frequency for Helicobacter pylori: strain 032, total number of plates about 100; for binding compared between Helicobacter pylori strains: strains 17875, 002 and 032
[2] = tested on: β-galactosidase from jack beans; assay: Inhibition of β-galactosidase cleavage of Galβ4GlcNAcβ3Galβ4Glc; format: biochemical; conditions: 55 mM inhibitor, 100 mU enzyme, 50 mM sodium citrate pH 4.0, 37° C., 8 h; no unreacted substrate without inhibitor
Source text: Inhibition of β-galactosidase enzyme by D-galactono-1,4-lactone (Sigma, St Louis, USA). β-galactosidase from jack beans (EC 3.2.1.23, Sigma, St Louis, USA) is used to cleave terminal galactose from model oligosaccharide Galβ4GlcNAcβ3Galβ4Glc (Sigma, St Louis, USA). It is noted that the transition state analog galactosidase inhibitor is active against many galactosidases (Huber and Brockbank, 1987, actual active form is probably D-galactono-1,5-lactone) and that the jack bean β-galactosidase cleaves similarily other type 2 lactosamines such as e.g. Galβ4GlcNAcβ3Galβ4GlcNAcβ3Galβ4Glc, specific conditions are needed to cleave Galβ3GlcNAc-sequences or glycospingolipids. In Reaction 1, 25 nmol of Galβ4GlcNAcβ3Galβ4Glc is incubated with 100 mU of β-galactosidase from jack beans in-45 μl of 50 mM sodium citrate pH 4.0, at 37° C., for 8 h. Reaction 2 has the same composition, but contains additionally 55 mM D-galactono-1,4-lactone and it is incubated under the same condition for 8 h. The major products from Reaction 1 are Gal and GlcNAcβ3Galβ4Glc, while unreacted substrate is generally not observable by HPLC and mass spectrometric analysis, while Reaction 2 contains besides these typically more than 50% of uncleaved Galβ4GlcNAcβ3Galβ4Glc.

Helicobacter pylori [3] = conditions: human gastrointestinal cell lines (Simon et al., 1999); cited from earlier work
Helicobacter pylori [4] = conditions: rhesus monkey (Mysore et al., 2000); cited from earlier work
[5] = target: T1, sialidase from Vibrio cholerae (Vibrio cholerae serotype O1, UniProt P0C6E9); assay: Inhibition of sialidase cleavage of Neu5Acα3Galβ4Glc; format: biochemical; conditions: saturating concentrations
T1 construct: purchased Behringwerke, Marburg, Germany
T1 sequence (P0C6E9 25-781): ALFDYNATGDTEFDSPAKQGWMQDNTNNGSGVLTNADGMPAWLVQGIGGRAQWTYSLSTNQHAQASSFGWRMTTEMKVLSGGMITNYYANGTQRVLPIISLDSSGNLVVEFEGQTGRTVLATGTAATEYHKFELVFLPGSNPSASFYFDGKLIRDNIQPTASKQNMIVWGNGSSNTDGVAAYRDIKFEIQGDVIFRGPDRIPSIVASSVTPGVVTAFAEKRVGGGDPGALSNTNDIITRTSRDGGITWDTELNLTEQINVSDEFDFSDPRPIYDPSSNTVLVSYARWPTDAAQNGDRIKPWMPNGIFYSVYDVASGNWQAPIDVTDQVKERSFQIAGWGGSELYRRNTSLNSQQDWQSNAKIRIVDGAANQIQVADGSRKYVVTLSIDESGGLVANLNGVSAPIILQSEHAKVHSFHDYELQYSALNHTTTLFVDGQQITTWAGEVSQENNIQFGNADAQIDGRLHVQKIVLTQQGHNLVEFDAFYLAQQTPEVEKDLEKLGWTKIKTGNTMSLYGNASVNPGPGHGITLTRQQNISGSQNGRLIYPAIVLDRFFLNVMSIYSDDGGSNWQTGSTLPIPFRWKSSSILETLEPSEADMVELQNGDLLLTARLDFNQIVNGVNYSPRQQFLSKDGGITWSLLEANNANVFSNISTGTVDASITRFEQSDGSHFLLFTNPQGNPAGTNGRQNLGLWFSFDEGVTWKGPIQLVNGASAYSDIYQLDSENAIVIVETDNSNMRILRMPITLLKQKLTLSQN

[6] = dilution series, semi-quantitative TLC overlay

Compound | Helicobacter pylori binding activity (in words) (Helicobacter pylori [1]) | also measured
GalNAcβ3Galα3Galβ4GlcNAcβ3Galβ4Glcβ1Cer [No. 25] | non-binding | –
Galα3(Fucα2)Galβ4GlcNAcβ3Galβ4Glcβ1Cer [No. 23] | non-binding | –
GlcNAcβ3Galβ4Glcβ1Cer [No. 1] | inactive | –
GlcNAcβ3Galβ4GlcNAcβ3Galβ4Glcβ1Cer [No. 10] | – | Helicobacter pylori binding activity (in words) (Helicobacter pylori [1]; listed as pentaglycosylceramide): strong activity; also recorded: displayed binding activity; also recorded: highly active; amount giving a positive response on TLC plates (Helicobacter pylori [1]; dilution series, semi-quantitative TLC overlay, mean value from 7 experiments): 0.039 nmol/spot; binding frequency for Helicobacter pylori (Helicobacter pylori [1]): ~90%; binding compared between Helicobacter pylori strains (Helicobacter pylori [1]): similar
Fucα2Galβ4GlcNAcβ3Galβ4Glcβ1Cer [No. 18] | absence of binding | –
Galα3Galβ4GlcNAcβ3Galβ4Glcβ1Cer [No. 13] | binding-active | –
maltoheptaose(red)-HDA [maltoheptaose/red)-HDA, reference compound] | totally inactive | –
O=C1O[C@@H]([C@H](O)CO)[C@H](O)[C@H]1O [D-galactono-1,4-lactone] | – | uncleaved Galβ4GlcNAcβ3Galβ4Glc [2]: more than 50%
CC(=O)N[C@H]1[C@H]([C@H](O)[C@H](O)CO)O[C@@](O[C@H]2[C@@H](O)[C@@H](CO)O[C@@H](O[C@H]3[C@H](O)[C@@H](O)C(O)O[C@@H]3CO)[C@@H]2O)(C(=O)O)C[C@@H]1O (stereo partly shown) [Sialyl-lactose] | – | inhibition of Helicobacter pylori binding to cell lines (Helicobacter pylori [3]): inhibits Helicobacter pylori binding; efficacy in animal model of the infection (Helicobacter pylori [4]): effective
GalNAcβ3Galβ4GlcNAcβ3Galβ4Glcβ1Cer [No. 11] | binding was also found | –
NeuAcα3GalNAcβ3Galβ4GlcNAcβ3Galβ4Glcβ1Cer [No. 24] | non-binding | –
Galβ4GlcβCer [diglycosylceramide] | displayed binding activity | –
Galα4Galβ4GlcNAcβ3Galβ4Glcβ1Cer [No. 15] | absence of binding | –
Galβ4GlcNAcβ3Galβ4GlcNAcβ3Galβ4Glcβ1Cer [No. 21] | displayed binding activity | amount in which glycolipid bound Helicobacter pylori (Helicobacter pylori [1]; [6]): ~0.2 nmoles of glycolipid/spot; binding frequency for Helicobacter pylori (Helicobacter pylori [1]): ~90%; binding compared between Helicobacter pylori strains (Helicobacter pylori [1]): similar
GalNAcα3(Fucα2)Galβ4GlcNAcβ3Galβ4Glcβ1Cer [No. 22] | non-binding | –
NeuGcα3Galβ4GlcNAcβ3Galβ4GlcNAcβ3Galβ4Glcβ1Cer [No. 27] | – | binding by Helicobacter pylori isolates (Helicobacter pylori [1]; about 60 isolates tested): bound by most Helicobacter pylori isolates
Galβ4GlcNAcβ3Galβ4Glcβ1Cer [No. 5] | displayed binding activity | amount in which glycolipid bound Helicobacter pylori (Helicobacter pylori [1]; [6]): ~0.3 nmoles of glycolipid/spot; binding compared between Helicobacter pylori strains (Helicobacter pylori [1]): similar
CCCCCCCCCCCCCCCCc1ccc(NC[C@H](O)[C@@H](O)[C@H](O[C@@H]2O[C@H](CO)[C@H](O)[C@H](O[C@@H]3O[C@H](CO)[C@@H](O[C@@H]4O[C@H](CO)[C@H](O)[C@H](O[C@@H]5O[C@H](CO)[C@@H](O)[C@H](O)[C@H]5NC(C)=O)[C@H]4O)[C@H](O)[C@H]3NC(C)=O)[C@H]2O)[C@H](O)CO)cc1 [GlcNAcβ3Galβ4GlcNAcβ3Galβ4Glc(red)-HDA] | observable binding activity | –
CC(=O)N[C@H]1[C@H]([C@H](O)[C@H](O)CO)OC(C(=O)O)=C[C@@H]1O [Neu5Ac2en, 2,3-anhydro-2-deoxy-N-acetylneuraminic acid] | – | inhibition of the enzyme (in words) [5]: very effectively inhibited
